From patent US10500222B2, “Compositions and methods relating to treatment of infection” (Wayne State University, priority 2015, dated 2019)

Columns and labels:
Format in all cases: in vivo, C57BL/6 (B6) mice
[1] = test system: protein levels in P. aeruginosa KEI 1025 infected cornea; test: ELISA of corneal proteins, KEI 1025 infection; settings: vs PBS
Method: (§1) The left eyes of B6 mice (n=5/group/time) were injected with 5 μl of 2 μg/μl glycyrrhizin (GLY) (Sigma-Aldrich, St. Louis, Mo.) or PBS (control) subconjunctivally, one day before infection. Similar treatment was done using carbenoxolone (CBX) (Sigma-Aldrich, St. Louis, Mo.). All mice were injected intraperitoneally (IP) at 1 and 3 days p.i. with 100 μl of GLY (2 μg/μl) or CBX (1 μg/μl). PBS served as control for all these experiments. In a separate similar experiment mice were treated one day before infection with GLY subconjunctivally and injected intraperitoneally (i.p.) with GLY plus recombinant (r) HMGB1 (1 μg/100 μl) or GLY plus PBS. IP injections were similarly given at 1 and 3 days p.i. In an additional experiment, KEI 1025 infected B6 mice were treated with 5 μl of 2 μg/μl GLY subconjunctivally at 6 hours p.i. and injected intraperitoneally at 1 and 3 days p.i. with 100 μl of GLY (2 μg/μl).
KEI 1025 or ATCC strain 19660 infected GLY or PBS treated, B6 mice (n=5/group/time) were sacrificed at 3 and 5 days p.i. and normal and infected corneas harvested. To quantify IL-1β and CXCL2 proteins, individual corneas were homogenized in 1 ml of 50 mM potassium phosphate buffer (pH 6.0) containing 0.5% HTAB (hexadecyltrimethylammonium bromide, Sigma). To quantify HMGB1, cathelicidin-related antimicrobial peptide (CRAMP), mouse beta defensin 2 (mBD2) and mouse beta defensin 3 (mBD3) protein levels, individual corneas were homogenized in 500 μl of PBS containing 0.1% Tween 20 (Sigma) and protease inhibitors (Roche, Indianapolis, Ind.). Corneal homogenates were centrifuged at 12,000 g for 10 min. A 50 μl aliquot of each supernatant was assayed in duplicate to quantify IL-1β, CXCL2, HMGB1 and mBD2 proteins. A 100 μl aliquot of CRAMP and mBD3 supernatant was assayed in duplicate to quantify corresponding protein levels. Undiluted supernatant aliquots were used to quantify all proteins except CXCL2 (1:2 dilution) and HMGB1 (1:5 dilution). An HMGB1 ELISA kit was purchased from Chondrex Inc., Redmond, Wash. CRAMP, mBD2 and mBD3 ELISA kits were purchased from MyBioSource, Inc., San Diego, Calif. All other ELISA kits were purchased from R&D Systems, Minneapolis, Minn. Assays were run following the manufacturer's instructions. Sensitivities of the assays were: 2.31 […] (mBD3).

[2] = test system: neutrophils in the cornea, P. aeruginosa KEI 1025; test: Myeloperoxidase (MPO) assay, KEI 1025 infection; settings: pretreatment subconj. + IP, vs PBS
Method: as §1
(§2) This assay was used to quantitate neutrophils in the cornea of GLY and PBS treated mice (n=5/group/time) infected with KEI 1025 or ATCC strain 19660. Individual corneas were removed at 3 and 5 days p.i. and homogenized in 1.0 ml of 50 mM phosphate buffer (pH 6.0) containing 0.5% HTAB. […] The change in absorbency was monitored at 460 nm for 5 min at 30 sec intervals. The slope of the line was determined for each sample and used to calculate units of MPO/cornea. […]

P. aeruginosa KEI 1025 = test: Quantification of viable bacteria (plate count), KEI 1025 infection; settings: vs PBS; for bacterial load (plate count): post treatment: subconj. 6 hours p.i. + IP 1 and 3 days p.i.; for bacterial load in the corneas (plate count): pretreatment subconj. + IP
Method: as §1
Mice were sacrificed at 3 and 5 days p.i. and KEI 1025 or ATCC strain 19660 infected corneas from GLY, CBX or PBS (or GLY+/−rHMGB1) treated B6 mice were harvested (n=5/group/time). Each cornea was homogenized in 1 ml of sterile saline (0.85% NaCl, pH 7.4) containing 0.25% BSA. A 100 μl of the corneal homogenate was serially diluted (1:10) in sterile saline containing 0.25% BSA. Selected dilutions were plated in triplicate on selective culture medium (Difco™ Pseudomonas Isolation Agar, BD Biosciences, Inc., Franklin Lakes, N.J.). Plates were incubated overnight at 37° C. and viable bacteria manually counted. Results are reported as log10 CFU/cornea±SEM.

[3] = test system: neutrophils in the cornea, P. aeruginosa ATCC strain 19660; test: Myeloperoxidase (MPO) assay, strain 19660 infection; settings: vs PBS
Method: as §1, §2

[4] = test system: P. aeruginosa ATCC strain 19660; test: Quantification of viable bacteria (plate count), strain 19660 infection; settings: vs PBS
Method: as §1
Mice were sacrificed at 3 and 5 days p.i. and KEI 1025 or ATCC strain 19660 infected corneas from GLY, CBX or PBS (or GLY+/−rHMGB1) treated B6 mice were harvested (n=5/group/time). Each cornea was homogenized in 1 ml of sterile saline (0.85% NaCl, pH 7.4) containing 0.25% BSA. A 100 μl of the corneal homogenate was serially diluted (1:10) in sterile saline containing 0.25% BSA. […] Plates were incubated overnight at 37° C. and viable bacteria manually counted. […]

[5] = KEI 1025, pretreatment subconj. + IP, 3 days p.i.
[6] = KEI 1025, pretreatment subconj. + IP, 5 days p.i.

## CC1(C)[C@@H](O[C@H]2O[C@H](C(=O)O)[C@@H](O)[C@H](O)[C@H]2O[C@@H]2O[C@H](C(=O)O)[C@@H](O)[C@H](O)[C@H]2O)CC[C@]2(C)[C@H]3C(=O)C=C4[C@@H]5C[C@@](C)(C(=O)O)CC[C@]5(C)CC[C@@]4(C)[C@]3(C)CC[C@@H]12 [GLY, glycyrrhizin]
[1]; [5]
  CXCL2 protein expression: significantly decreased
  HMGB1 protein: not 3 days p.i.
  IL-1 protein: no different from control values
  expression of CRAMP (protein): upregulated the expression of CRAMP significantly
  mBD2 protein: significantly upregulated
  mBD3 protein: did not differ significantly
[1]; [6]
  CXCL2 protein expression: significantly decreased
  HMGB1 protein: reduced HMGB1 protein significantly
  IL-1 protein: significantly decreased
  expression of CRAMP (protein): no difference between groups
  mBD2 protein: significantly upregulated
  mBD3 protein: did not differ significantly
[1]; normal cornea
  HMGB1 protein: did not differ
  mBD3 protein: did not differ significantly
[1]; normal, contralateral uninfected eye
  mBD2 protein: higher
[1]; normal, uninfected cornea
  expression of CRAMP (protein): upregulated the expression of CRAMP significantly
[2]; 3 days p.i.
  neutrophils in cornea (MPO assay): decreased neutrophils
[2]; 5 days p.i.
  neutrophils in cornea (MPO assay): decreased neutrophils
P. aeruginosa KEI 1025; 3 days p.i.
  bacterial load (plate count): reduced significantly
  bacterial load in the corneas (plate count): reduced
P. aeruginosa KEI 1025; 5 days p.i.
  bacterial load (plate count): reduced significantly
  bacterial load in the corneas (plate count): reduced
[3]; 3 days p.i.
  neutrophils in the cornea (MPO assay): significant decrease in neutrophils
[3]; 5 days p.i.
  neutrophils in the cornea (MPO assay): significant decrease in neutrophils
[4]; 3 days p.i.
  bacterial load (plate count): significantly reduced
[4]; 5 days p.i.
  bacterial load (plate count): significantly reduced
